Read-outs that look alike come from different tables or passages of the source.
Columns and labels:
E. faecium = settings: Monte-Carlo on Dvorchik's pop-PK model, cited from earlier work
[1] = Daptomycin plasma concentrations, routine TDM, HPLC-UV; settings: for Daptomycin plasma concentration 1 h, mean ± SD: peak; for Daptomycin plasma concentration 23.5 h, mean ± SD: trough
Description: This work was conducted in the framework of DAPTOLIN, an observational retrospective study approved by the Ethics Committee of the Azienda OspedalieroUniversitaria Pisana (AOUP protocol number 55945). […] Patients with incomplete medical records were excluded. […] After the first round, in which 134 patients were included, the dataset was split in 2 subsets through an iterative stratified sampling procedure [21]. The covariates considered for subset balancing were sex, weight, CrCl (calculated through the Cockroft-Gault equation), serum albumin and serum total protein concentration. During the second round, 22 further patients were included, to reach a total of 156 included patients.
Venous blood samples were collected in heparinized tubes and centrifuged immediately after. The extracted plasma was then stored at −20 °C until subsequent analysis.
The quantification technique was based on the novel HPLC-UV method developed and described by Luci and colleagues [22]. Briefly, plasma samples were firstly purified using a 95:5 v/v mixture of acetonitrile and 85% H3PO4, to induce protein precipitation. Samples were then vortexed for 30 s and centrifuged at 7700 rpm for 15 min. […] The mobile phase, composed of a 54:46 v/v mixture of 20 mM KH2PO4 and acetonitrile at pH 3.2, was pumped in the HPLC system at a 1 mL/min flowrate, while the chromatographic column temperature was kept at 35 °C. These conditions allowed the optimal separation of analytes in a 10 min-long chromatographic run.

[2] = Population pharmacokinetic model (NONMEM), one-compartment first-order elimination
Description: Basic model building was performed using the building subset (n = 94), through PsN-controlled NONMEM iterative runs. One- and two- compartment models with first-order elimination, parametrized in terms of drug Cl and Vd, were evaluated. Residual error was described using additive, proportional or mixed error models. Models were compared based on the following aspects: (1) minimization of the OFV; (2) standard errors and confidence intervals of parameter estimates, calculated for each model through NONMEM correlation matrices and PsN-controlled bootstrap method; (3) goodness-of-fit plots generated with Xpose4 [24]; (4) plausibility of parameter estimates, according to the literature.
The preliminary covariate screening was performed through several Xpose4 functions, which are as follows: (1) graphic analysis of covariate-covariate plots to exclude redundancies, (2) graphic analysis of parameters-covariate plots, (3) generalized additive model (GAM) to search for the covariates that minimized the most of Akaike’s information criterion (AIC) value. Covariate model building was based on the least absolute shrinkage and selection operator method, which is automated within the “lasso” Perl command [17]. Further insights on covariates effect were collected with the same methods, after the second patient enrollment round.
The final model was validated both with internal and external approaches. The former one was performed through the following steps: (1) a visual predictive check (VPC), namely a concentration-time plot, where the mean and 5th and 95th percentile of real data are superimposed to the respective descriptive measures of simulated concentrations; (2) a numeric predictive check, which assesses abnormal trends in the DV/iPRED ratio for different statistical confidence intervals; (3) a bootstrap of the model, which calculates the bias between final parameters estimates and the means estimated through 1500 further runs of the same model, based on a random resampling from the same dataset; (4) calculation of η- and ε-shrinkage, as described in the following equations:(3) ηshrink=1−stdev(ηest)/ω (4) εshrink=1−stdev(IWRES)

[3] = daily dose 6–7 mg/kg, n = 96 patients
[4] = daily dose 8–9 mg/kg, n = 32 patients
[5] = daily dose 10–11 mg/kg, n = 8 patients

CCCCCCCCCC(=O)N[C@@H](Cc1c[nH]c2ccccc12)C(=O)N[C@H](CC(N)=O)C(=O)N[C@@H](CC(=O)O)C(=O)N[C@@H]1C(=O)NCC(=O)N[C@@H](CCCN)C(=O)N[C@@H](CC(=O)O)C(=O)N[C@H](C)C(=O)N[C@@H](CC(=O)O)C(=O)NCC(=O)N[C@H](CO)C(=O)N[C@@H]([C@H](C)CC(=O)O)C(=O)N[C@@H](CC(=O)c2ccccc2N)C(=O)O[C@@H]1C [Daptomycin]
CFR against E. faecium reported by Turnidge et al. (E. faecium; 8 mg/kg × MIC 2): 80.4% | CFR against E. faecium reported by Turnidge et al. (E. faecium; 10 mg/kg × MIC 2): 92.9% | Daptomycin plasma concentration 1 h, mean ± SD ([1]; daily dose 12 mg/kg, n = 4 patients): 80.0 ± 25.7 | Daptomycin plasma concentration 23.5 h, mean ± SD ([1]; daily dose 4–5 mg/kg, n = 15 patients): 11.4 ± 8.7 | Daptomycin plasma concentration 1 h, mean ± SD [1, 3]: 59.3 ± 18.0 | Daptomycin plasma concentration 23.5 h, mean ± SD [1, 3]: 17.8 ± 11.0 | Daptomycin plasma concentration 1 h, mean ± SD [1, 4]: 74.4 ± 51.3 | Daptomycin plasma concentration 23.5 h, mean ± SD [1, 4]: 15.5 ± 10.7 | Daptomycin plasma concentration 1 h, mean ± SD [1, 5]: 69.8 ± 21.7 | Daptomycin plasma concentration 23.5 h, mean ± SD [1, 5]: 25.4 ± 14.1 | Cl (θ1), bootstrap mean ([2]; 1500-samples bootstrap): 0.631 L/h | V (θ2), bootstrap mean ([2]; 1500-samples bootstrap): 10.935 L | kCrCl (θ5), bootstrap mean ([2]; 1500-samples bootstrap): 0.128 | kSex (θ6), bootstrap mean ([2]; 1500-samples bootstrap): −2.484 | Vd ([2]; human, in vivo): 10.9 L | clearance ([2]; human, in vivo): 10.6 mL/min

— PMC9311615 (Antibiotics, 2022)
